PubChem BioAssay AID256 (DTP/NCI, 2004)
Several values for one entry are separate records, joined by “and”; a condition that tells them apart may be missing. Identical values can stand only once. Toxic doses and inconclusive results are not listed. Positions of bridges follow the written chain, without caps; N, C: chain ends. Residues, ends and D or L forms follow the SMILES beside them.

Tested on: CD2F1 mice, L1210 leukemia ip, survival T/C
Experiment: NCI In Vivo Anticancer Drug Screen. Data for tumor model L1210 Leukemia (intraperitoneal) in CD2F1 (CDF1) mice
Conditions: higher = longer survival
In short: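 Mice carrying a transplanted tumor received test compound or vehicle alone. The value is the measurement in the treated group divided by that in the vehicle-treated control group.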

S=P(N1CC1)(N1CC1)N1CC1
T/C (endpoint: mean survival time, dose: 0.5 mg/kg/injection, schedule: Q01DX009 (ip), vehicle: saline): 112 % of control
T/C (endpoint: mean survival time, dose: 0.5 mg/kg/injection, schedule: Q03HX024 (ip), vehicle: saline): 112 % of control
T/C (endpoint: mean survival time, dose: 1.0 mg/kg/injection, schedule: Q01DX005 (iv), vehicle: saline): 101 % of control
T/C (endpoint: mean survival time, dose: 1.0 mg/kg/injection, schedule: Q01DX009 (ip), vehicle: saline): 96 % of control and 112 % of control
T/C (endpoint: mean survival time, dose: 1.0 mg/kg/injection, schedule: Q01DX009 (sc), vehicle: saline): 114 % of control
T/C (endpoint: mean survival time, dose: 1.0 mg/kg/injection, schedule: Q03HX008 (ip), vehicle: saline): 106 % of control
T/C (endpoint: mean survival time, dose: 1.0 mg/kg/injection, schedule: Q03HX016 (ip), vehicle: saline): 104 % of control
T/C (endpoint: mean survival time, dose: 1.5 mg/kg/injection, schedule: Q01DX009 (ip), vehicle: saline): 111 % of control
T/C (endpoint: mean survival time, dose: 2.0 mg/kg/injection, schedule: Q01DX005 (iv), vehicle: saline): 108 % of control
T/C (endpoint: mean survival time, dose: 2.0 mg/kg/injection, schedule: Q01DX009 (ip), vehicle: saline): 120 % of control and 122 % of control (2×)
T/C (endpoint: mean survival time, dose: 2.0 mg/kg/injection, schedule: Q03DX003 (ip), vehicle: saline): 112 % of control
T/C (endpoint: mean survival time, dose: 2.0 mg/kg/injection, schedule: Q03HX008 (ip), vehicle: saline): 118 % of control
T/C (endpoint: mean survival time, dose: 2.0 mg/kg/injection, schedule: Q03HX016 (ip), vehicle: saline): 117 % of control
T/C (endpoint: mean survival time, dose: 2.0 mg/kg/injection, schedule: Q03HX024 (ip), vehicle: saline): 88 % of control
T/C (endpoint: mean survival time, dose: 2.0 mg/kg/injection, schedule: Q04DX003 (ip), vehicle: saline): 101 % of control
T/C (endpoint: mean survival time, dose: 2.5 mg/kg/injection, schedule: Q04DX003 (ip), vehicle: saline): 101 % of control
T/C (endpoint: mean survival time, dose: 4.0 mg/kg/injection, schedule: Q01DX001 (iv), vehicle: saline): 117 % of control
T/C (endpoint: mean survival time, dose: 4.0 mg/kg/injection, schedule: Q01DX001 (sc), vehicle: saline): 103 % of control
T/C (endpoint: mean survival time, dose: 4.0 mg/kg/injection, schedule: Q01DX007 (ip), vehicle: saline): 158 % of control
T/C (endpoint: mean survival time, dose: 4.0 mg/kg/injection, schedule: Q01DX009 (ip), vehicle: saline): 154 % of control and 166 % of control and 171 % of control
T/C (endpoint: mean survival time, dose: 4.0 mg/kg/injection, schedule: Q01DX009 (oral), vehicle: saline): 122 % of control
T/C (endpoint: mean survival time, dose: 4.0 mg/kg/injection, schedule: Q04DX003 (ip), vehicle: saline): 120 % of control
T/C (endpoint: mean survival time, dose: 6.0 mg/kg/injection, schedule: Q01DX001 (ip), vehicle: saline): 115 % of control
T/C (endpoint: mean survival time, dose: 7.7 mg/kg/injection, schedule: Q01DX001 (ip), vehicle: saline with Tween-80): 112 % of control
T/C (endpoint: mean survival time, dose: 7.7 mg/kg/injection, schedule: Q01DX001 (ip), vehicle: saline): 123 % of control and 106 % of control
T/C (endpoint: mean survival time, dose: 8.0 mg/kg/injection, schedule: Q01DX001 (ip), vehicle: saline): 110 % of control
T/C (endpoint: mean survival time, dose: 8.0 mg/kg/injection, schedule: Q01DX001 (sc), vehicle: saline): 115 % of control
T/C (endpoint: mean survival time, dose: 8.0 mg/kg/injection, schedule: Q01DX007 (ip), vehicle: saline): 110 % of control
T/C (endpoint: mean survival time, dose: 8.0 mg/kg/injection, schedule: Q01DX009 (sc), vehicle: saline): 114 % of control
T/C (endpoint: mean survival time, dose: 8.0 mg/kg/injection, schedule: Q03DX003 (ip), vehicle: saline): 209 % of control
T/C (endpoint: mean survival time, dose: 8.0 mg/kg/injection, schedule: Q04DX003 (ip), vehicle: saline): 179 % of control and 183 % of control
T/C (endpoint: mean survival time, dose: 8.0 mg/kg/injection, schedule: Q08DX002 (ip), vehicle: saline): 122 % of control
T/C (endpoint: mean survival time, dose: 10.0 mg/kg/injection, schedule: Q04DX003 (ip), vehicle: saline): 153 % of control
T/C (endpoint: mean survival time, dose: 10.9 mg/kg/injection, schedule: Q01DX001 (ip), vehicle: saline with Tween-80): 122 % of control
T/C (endpoint: mean survival time, dose: 10.9 mg/kg/injection, schedule: Q01DX001 (ip), vehicle: saline): 122 % of control and 124 % of control
T/C (endpoint: mean survival time, dose: 12.0 mg/kg/injection, schedule: Q01DX001 (ip), vehicle: saline): 153 % of control
T/C (endpoint: mean survival time, dose: 15.0 mg/kg/injection, schedule: Q01DX001 (ip), vehicle: saline): 161 % of control
T/C (endpoint: mean survival time, dose: 16.0 mg/kg/injection, schedule: Q01DX001 (ip), vehicle: saline): 154 % of control
T/C (endpoint: mean survival time, dose: 16.0 mg/kg/injection, schedule: Q01DX001 (iv), vehicle: saline): 155 % of control
T/C (endpoint: mean survival time, dose: 16.0 mg/kg/injection, schedule: Q01DX009 (ip), vehicle: saline): 96 % of control
T/C (endpoint: mean survival time, dose: 16.0 mg/kg/injection, schedule: Q01DX009 (oral), vehicle: saline): 120 % of control
T/C (endpoint: mean survival time, dose: 16.0 mg/kg/injection, schedule: Q04DX003 (ip), vehicle: saline): 95 % of control
T/C (endpoint: mean survival time, dose: 20.0 mg/kg/injection, schedule: Q04DX003 (ip), vehicle: saline): 124 % of control
T/C (endpoint: mean survival time, dose: 22.4 mg/kg/injection, schedule: Q01DX001 (ip), vehicle: saline with Tween-80): 163 % of control
T/C (endpoint: mean survival time, dose: 32.0 mg/kg/injection, schedule: Q01DX001 (ip), vehicle: saline with Tween-80): 89 % of control
T/C (endpoint: mean survival time, dose: 32.0 mg/kg/injection, schedule: Q01DX001 (oral), vehicle: saline): 154 % of control
T/C (endpoint: median survival time, dose: 1.56 mg/kg/injection, schedule: Q01DX009 (ip), vehicle: saline): 117 % of control
T/C (endpoint: median survival time, dose: 3.0 mg/kg/injection, schedule: Q01DX009 (ip), vehicle: water): 97 % of control
T/C (endpoint: median survival time, dose: 3.13 mg/kg/injection, schedule: Q01DX009 (ip), vehicle: saline): 164 % of control and 178 % of control
T/C (endpoint: median survival time, dose: 6.0 mg/kg/injection, schedule: Q01DX009 (ip), vehicle: water): 95 % of control
T/C (endpoint: median survival time, dose: 8.0 mg/kg/injection, schedule: Q01DX009 (ip), vehicle: water): 88 % of control
T/C (endpoint: median survival time, dose: 12.5 mg/kg/injection, schedule: Q01DX009 (ip), vehicle: saline): 88 % of control and 107 % of control
T/C (endpoint: median survival time, dose: 16.0 mg/kg/injection, schedule: Q01DX009 (ip), vehicle: water): 77 % of control
T/C (endpoint: median survival time, dose: 20.0 mg/kg/injection, schedule: Q01DX001 (ip), vehicle: saline): 172 % of control
T/C (endpoint: median survival time, dose: 25.0 mg/kg/injection, schedule: Q01DX001 (ip), vehicle: saline): 193 % of control

CCCCC1(C(C)CC(C)(C)C)NC(C)(C)CC(C)O1 (stereo not drawn)
T/C (endpoint: mean survival time, dose: 25.0 mg/kg/injection, schedule: Q04DX002 (ip), vehicle: saline): 104 % of control
T/C (endpoint: mean survival time, dose: 50.0 mg/kg/injection, schedule: Q04DX002 (ip), vehicle: saline): 101 % of control
T/C (endpoint: mean survival time, dose: 100.0 mg/kg/injection, schedule: Q04DX002 (ip), vehicle: saline): 89 % of control
T/C (endpoint: mean survival time, dose: 100.0 mg/kg/injection, schedule: Q04DX003 (ip), vehicle: saline with Tween-80): 101 % of control

COC1C(O)=C2C(=O)OC(C)(O)/C=C/C=C\C=C/C=C/C(c3ccccc3)NC(=O)/C=C/C=C/C=C/C=C/C2(C)C1O (stereo not drawn)
T/C (endpoint: mean survival time, dose: 6.25 mg/kg/injection, schedule: Q01DX009 (ip), vehicle: Klucel (hydroxypropylcellulose) (HPC)): 106 % of control
T/C (endpoint: mean survival time, dose: 12.5 mg/kg/injection, schedule: Q01DX009 (ip), vehicle: Klucel (hydroxypropylcellulose) (HPC)): 95 % of control
T/C (endpoint: mean survival time, dose: 25.0 mg/kg/injection, schedule: Q01DX009 (ip), vehicle: Klucel (hydroxypropylcellulose) (HPC)): 103 % of control

CCC(C)C1NC(=O)C(CC(C)C)NC(=O)C(C(C)C)NC(=O)C2CSSCC(NC1=O)C(=O)N2 (stereo not drawn) (cyclo(CCVLI); disulfide 1-2; configuration not given here)
T/C (endpoint: mean survival time, dose: 31.25 micrograms/kg/injection, schedule: Q01DX009 (ip), vehicle: Klucel (hydroxypropylcellulose) (HPC)): 93 % of control
T/C (endpoint: mean survival time, dose: 62.5 micrograms/kg/injection, schedule: Q01DX009 (ip), vehicle: Klucel (hydroxypropylcellulose) (HPC)): 95 % of control
T/C (endpoint: mean survival time, dose: 125.0 micrograms/kg/injection, schedule: Q01DX009 (ip), vehicle: Klucel (hydroxypropylcellulose) (HPC)): 98 % of control
T/C (endpoint: mean survival time, dose: 250.0 micrograms/kg/injection, schedule: Q01DX009 (ip), vehicle: Klucel (hydroxypropylcellulose) (HPC)): 96 % of control
T/C (endpoint: mean survival time, dose: 500.0 micrograms/kg/injection, schedule: Q01DX009 (ip), vehicle: Klucel (hydroxypropylcellulose) (HPC)): 98 % of control
T/C (endpoint: mean survival time, dose: 1000.0 micrograms/kg/injection, schedule: Q01DX009 (ip), vehicle: Klucel (hydroxypropylcellulose) (HPC)): 96 % of control

CC(C)N1C(=O)N(Cl)C2C1N(Cl)C(=O)N2Cl (stereo not drawn)
T/C (endpoint: median survival time, dose: 1.5 mg/kg/injection, schedule: Q01DX009 (ip), vehicle: saline with Tween-80): 101 % of control
T/C (endpoint: median survival time, dose: 3.0 mg/kg/injection, schedule: Q01DX009 (ip), vehicle: saline with Tween-80): 102 % of control
T/C (endpoint: median survival time, dose: 6.0 mg/kg/injection, schedule: Q01DX009 (ip), vehicle: saline with Tween-80): 93 % of control
T/C (endpoint: median survival time, dose: 12.0 mg/kg/injection, schedule: Q01DX009 (ip), vehicle: saline with Tween-80): 103 % of control
T/C (endpoint: median survival time, dose: 24.0 mg/kg/injection, schedule: Q01DX009 (ip), vehicle: saline with Tween-80): 104 % of control
T/C (endpoint: median survival time, dose: 25.0 mg/kg/injection, schedule: Q01DX009 (ip), vehicle: saline with Tween-80): 100 % of control

O=c1[nH]n(Cc2ccccc2)c2ccccc12
T/C (endpoint: mean survival time, dose: 25.0 mg/kg/injection, schedule: Q04DX003 (ip), vehicle: Klucel (hydroxypropylcellulose) (HPC)): 101 % of control
T/C (endpoint: mean survival time, dose: 50.0 mg/kg/injection, schedule: Q04DX003 (ip), vehicle: Klucel (hydroxypropylcellulose) (HPC)): 106 % of control
T/C (endpoint: mean survival time, dose: 100.0 mg/kg/injection, schedule: Q04DX003 (ip), vehicle: Klucel (hydroxypropylcellulose) (HPC)): 106 % of control

CCCCCCC(=O)CCCCCC/C=C/CC(O)C(O)C(N)(CO)C(=O)O (stereo not drawn)
T/C (endpoint: mean survival time, dose: 12.5 mg/kg/injection, schedule: Q04DX002 (ip), vehicle: saline with Tween-80): 86 % of control
